# Like-named read-outs stand apart in the source and are kept apart here.
# Key:
# [1] = sealed
# Description: Salts prepared as in example 1 were dried, stored under the specified conditions without the addition of other substances and checked at regular intervals visually for discoloration: […]
# Lactic acid bacteria = conditions: Part II, 1 g/l in apple juice pH 4.5, 25° C.
# Clostridia = conditions: Part II, 1 g/l in apple juice pH 4.5, 25° C.
# Bacilli = conditions: Part II, 1 g/l in apple juice pH 4.5, 25° C.
# Thermophilic bacilli = conditions: Part II, 1 g/l in apple juice pH 4.5, 25° C.
# Acetic acid bacteria = conditions: Part II, 1 g/l in apple juice pH 4.5, 25° C.
# Yeasts = conditions: Part II, 1 g/l in apple juice pH 4.5, 25° C.
# Molds I = conditions: Part II, 1 g/l in apple juice pH 4.5, 25° C.
# Molds II = conditions: Part II, 1 g/l in apple juice pH 4.5, 25° C.
# Gram-negative bacteria = conditions: Part II; for Number of surviving microorganisms per g of contaminated sample, Gram-negative bacteria: 1 g/l in apple juice pH 4.5, 25° C.
# Gram-positive bacteria = conditions: Part II, 1 g/l in apple juice pH 4.5, 25° C.
# [2] = 1 day after inoculation (2.7 × 10^4)
# [3] = 3 days after inoculation (2.7 × 10^4)
# [4] = 7 days after inoculation (2.7 × 10^4)
# [5] = 14 days after inoculation (2.7 × 10^4)
structure (smiles),measurement,setting,value
C/C=C/C=C/C(=O)[O-].CC(=O)[O-].[Ca+2] [calcium acetate sorbate],Time after yellow-brown discoloration of a 1% strength aqueous solution,[1]; dark at 7° C.,>12 months />12 months
same,Time after yellow-brown discoloration of the powder,[1]; dark at 7° C.,12 months />12 months
same,Time after yellow-brown discoloration of a 1% strength aqueous solution,[1]; dark at 25° C.,>12 months />12 months
same,Time after yellow-brown discoloration of the powder,[1]; dark at 25° C.,12 months />12 months
same,Time after yellow-brown discoloration of a 1% strength aqueous solution,[1]; under sunlight at 7° C.,12 months />12 months
same,Time after yellow-brown discoloration of the powder,[1]; under sunlight at 7° C.,12 months />12 months
same,Time after yellow-brown discoloration of a 1% strength aqueous solution,[1]; under sunlight at 25° C.,12 months />12 months
same,Time after yellow-brown discoloration of the powder,[1]; under sunlight at 25° C.,12 months />12 months
same,"Number of surviving microorganisms per g of contaminated sample, Lactic acid bacteria",Lactic acid bacteria; [2],5.5 × 10^3 CFU/g
same,"Number of surviving microorganisms per g of contaminated sample, Lactic acid bacteria",Lactic acid bacteria; [3],<100 CFU/g
same,"Number of surviving microorganisms per g of contaminated sample, Lactic acid bacteria",Lactic acid bacteria; [4],<10 CFU/g
same,"Number of surviving microorganisms per g of contaminated sample, Lactic acid bacteria",Lactic acid bacteria; [5],<10 CFU/g
same,"Number of surviving microorganisms per g of contaminated sample, Clostridia",Clostridia; 1 day after inoculation (2.9 × 10^4),7.0 × 10^2 CFU/g
same,"Number of surviving microorganisms per g of contaminated sample, Clostridia",Clostridia; 3 days after inoculation (2.9 × 10^4),<100 CFU/g
same,"Number of surviving microorganisms per g of contaminated sample, Clostridia",Clostridia; 7 days after inoculation (2.9 × 10^4),<10 CFU/g
same,"Number of surviving microorganisms per g of contaminated sample, Clostridia",Clostridia; 14 days after inoculation (2.9 × 10^4),<10 CFU/g
same,"Number of surviving microorganisms per g of contaminated sample, Bacilli",Bacilli; 1 day after inoculation (3.3 × 10^4),2.5 × 10^3 CFU/g
same,"Number of surviving microorganisms per g of contaminated sample, Bacilli",Bacilli; 3 days after inoculation (3.3 × 10^4),1.7 × 10^3 CFU/g
same,"Number of surviving microorganisms per g of contaminated sample, Bacilli",Bacilli; 7 days after inoculation (3.3 × 10^4),1.7 × 10^3 CFU/g
same,"Number of surviving microorganisms per g of contaminated sample, Bacilli",Bacilli; 14 days after inoculation (3.3 × 10^4),1.4 × 10^3 CFU/g
same,"Number of surviving microorganisms per g of contaminated sample, Thermophilic bacilli",Thermophilic bacilli; 1 day after inoculation (1.3 × 10^4),2.3 × 10^3 CFU/g
same,"Number of surviving microorganisms per g of contaminated sample, Thermophilic bacilli",Thermophilic bacilli; 3 days after inoculation (1.3 × 10^4),1.1 × 10^3 CFU/g
same,"Number of surviving microorganisms per g of contaminated sample, Thermophilic bacilli",Thermophilic bacilli; 7 days after inoculation (1.3 × 10^4),1.0 × 10^2 CFU/g
same,"Number of surviving microorganisms per g of contaminated sample, Thermophilic bacilli",Thermophilic bacilli; 14 days after inoculation (1.3 × 10^4),<10 CFU/g
same,"Number of surviving microorganisms per g of contaminated sample, Acetic acid bacteria",Acetic acid bacteria; 1 day after inoculation (2.8 × 10^4),2.5 × 10^4 CFU/g
same,"Number of surviving microorganisms per g of contaminated sample, Acetic acid bacteria",Acetic acid bacteria; 3 days after inoculation (2.8 × 10^4),6.5 × 10^3 CFU/g
same,"Number of surviving microorganisms per g of contaminated sample, Acetic acid bacteria",Acetic acid bacteria; 7 days after inoculation (2.8 × 10^4),1.7 × 10^5 CFU/g
same,"Number of surviving microorganisms per g of contaminated sample, Acetic acid bacteria",Acetic acid bacteria; 14 days after inoculation (2.8 × 10^4),1.6 × 10^5 CFU/g
same,"Number of surviving microorganisms per g of contaminated sample, Yeasts",Yeasts; 1 day after inoculation (2.6 × 10^4),1.3 × 10^4 CFU/g
same,"Number of surviving microorganisms per g of contaminated sample, Yeasts",Yeasts; 3 days after inoculation (2.6 × 10^4),3.4 × 10^3 CFU/g
same,"Number of surviving microorganisms per g of contaminated sample, Yeasts",Yeasts; 7 days after inoculation (2.6 × 10^4),<100 CFU/g
same,"Number of surviving microorganisms per g of contaminated sample, Yeasts",Yeasts; 14 days after inoculation (2.6 × 10^4),<10 CFU/g
same,"Number of surviving microorganisms per g of contaminated sample, Molds I",Molds I; 1 day after inoculation (2.2 × 10^4),3.7 × 10^3 CFU/g
same,"Number of surviving microorganisms per g of contaminated sample, Molds I",Molds I; 3 days after inoculation (2.2 × 10^4),5.0 × 10^2 CFU/g
same,"Number of surviving microorganisms per g of contaminated sample, Molds I",Molds I; 7 days after inoculation (2.2 × 10^4),1.0 × 10^2 CFU/g
same,"Number of surviving microorganisms per g of contaminated sample, Molds I",Molds I; 14 days after inoculation (2.2 × 10^4),<100 CFU/g
same,"Number of surviving microorganisms per g of contaminated sample, Molds II",Molds II; 1 day after inoculation (2.5 × 10^4),4.4 × 10^3 CFU/g
same,"Number of surviving microorganisms per g of contaminated sample, Molds II",Molds II; 3 days after inoculation (2.5 × 10^4),<100 CFU/g
same,"Number of surviving microorganisms per g of contaminated sample, Molds II",Molds II; 7 days after inoculation (2.5 × 10^4),<10 CFU/g
same,"Number of surviving microorganisms per g of contaminated sample, Molds II",Molds II; 14 days after inoculation (2.5 × 10^4),<10 CFU/g
same,Growth of Gram-negative bacteria,Gram-negative bacteria; 1 g/l in apple juice pH 4.5,substantially inhibited
same,"Number of surviving microorganisms per g of contaminated sample, Gram-negative bacteria",Gram-negative bacteria; [2],9.0 × 10^3 CFU/g
same,"Number of surviving microorganisms per g of contaminated sample, Gram-negative bacteria",Gram-negative bacteria; [3],3.2 × 10^3 CFU/g
same,"Number of surviving microorganisms per g of contaminated sample, Gram-negative bacteria",Gram-negative bacteria; [4],1.5 × 10^3 CFU/g
same,"Number of surviving microorganisms per g of contaminated sample, Gram-negative bacteria",Gram-negative bacteria; [5],4.2 × 10^4 CFU/g
same,"Number of surviving microorganisms per g of contaminated sample, Gram-positive bacteria",Gram-positive bacteria; 1 day after inoculation (2.1 × 10^4),2.5 × 10^4 CFU/g
same,"Number of surviving microorganisms per g of contaminated sample, Gram-positive bacteria",Gram-positive bacteria; 3 days after inoculation (2.1 × 10^4),6.2 × 10^3 CFU/g
same,"Number of surviving microorganisms per g of contaminated sample, Gram-positive bacteria",Gram-positive bacteria; 7 days after inoculation (2.1 × 10^4),2.7 × 10^3 CFU/g
same,"Number of surviving microorganisms per g of contaminated sample, Gram-positive bacteria",Gram-positive bacteria; 14 days after inoculation (2.1 × 10^4),<10 CFU/g
same,Preservative action against the microorganisms used,"all microorganisms used; 1 g/l in apple juice pH 4.5, up to 14 days",acts well and persistently against all microorganisms used except for acetic acid bacteria and bacilli
same,Preservative action compared with the single salts,"all microorganisms used; same concentration, 1 g/l in apple juice pH 4.5","acts surprisingly better than calcium acetate (in particular against lactic acid bacteria, yeasts, molds and Gram-positive bacteria) or calcium sorbate (in particular against lactic acid bacteria) used alone"

# Source: patent US6693216B2, “Calcium double salts” (Nutrinova Nutrition Specialties & Food Ingredients GmbH, priority 2000, dated 2004)
